Measurements: PMC12134901, “Synthesis and characterization of thymol-derived phenoxy acetamide derivatives using DFT, molecular docking, and parasitological investigations” (Frontiers in Chemistry, 2025)
In brackets after ≈: the same amount, converted by molar mass.

Tests used:
[1] = Hemolytic activity assay (cytotoxicity on RBCs); assay type: cell-based, rat; conditions: rat, washed erythrocytes (RBCs) suspended in PBS, 60 min at 37°C; for hemolysis at 60 min, 62.5 μg/mL: pH 7.4, 62.5 μg/mL; for hemolysis at 60 min, 125 μg/mL: pH 7.4, 125 μg/mL; for hemolysis at 60 min, 250 μg/mL: pH 7.4, 250 μg/mL; for hemolysis at 60 min, 500 μg/mL: pH 7.4, 500 μg/mL; for hemolysis at 60 min, 1000 μg/mL: pH 7.4, 1,000 μg/mL
Protocol: (§1) The hemolytic effect of different compounds was evaluated using an existing method. ([Diaconu et al., 2020]). One milliliter of rat blood was collected, added to a sterile, screw-top EDTA tube, and centrifuged at 3000 rpm for 20 min. The upper layer was decanted, and the erythrocytes were rinsed several times with 10 mL of cooled isotonic and sterile phosphate-buffered saline (PBS) with a pH of 7.4. The rinsed cells were re-suspended in 20 mL sterile, cold PBS. The compounds (serial dilutions of 62.5–1,000 μg/mL in DMSO) were added to the erythrocyte solution and incubated for 60 min at 37°C. After centrifugation at 3000 rpm for 10 min, the absorbance of hemoglobin in the supernatant at 540 nm was used to calculate the hemolysis rate. Triton X-100 (0.1% in PBS) was used as a positive control, and the vehicle (PBS/DMSO) was used as the negative control. The hemolysis percentage was calculated as follows: Hemolysis percentage = (Ab of sample − Ab of negative control)/(Ab of positive control–Ab of negative control) × 100.

Cryptosporidium oocysts = test: Oocyst shedding in feces of Cryptosporidium-infected immunosuppressed mice (modified Ziehl–Neelsen stain); assay type: in vivo; conditions: compounds 100 mg/kg/day, NTZ 250 mg/kg/day, orally from 7th day post-infection for 10 days; for Shed oocysts/mg (Mean ± SD): immunosuppressed infected mice, feces 30 days post infection; for R%: reduction percent in oocyst count: vs infected non-treated G2
Source text: Cryptosporidium oocysts were obtained from the Parasitology Lab, Theodor Bilharz Research Institute, Giza, Egypt. Before infection, the oocysts were concentrated and counted in PBS using a hemocytometer. To maintain the organism cycle, five mice were inoculated with 3000–3500 oocysts using a tuberculin syringe in an intra-esophageal manner. ([Operario et al., 2015]).
Eighty healthy laboratory-bred adult male Swiss albino mice weighing 30–40 g were purchased from the animal house of the Faculty of Pharmacy, Pharos University. The animals were allowed to acclimatize for 1 week to the environmental conditions and housed in grouped plastic cages away from direct sunlight, under appropriate sanitary conditions and controlled temperature and humidity.
Immune suppression was induced and maintained throughout the experiment by administering dexamethasone (Dexazone, Al Kahira Pharmaceutical and Chemical Industries) through oral-gastric gavage at a dose of 0.25 mg/g/d for 14 consecutive days prior to inoculation with Cryptosporidium oocysts. ([Najoom et al., 2021]).
On day 15 of dexamethasone treatment, mice in the infected groups were inoculated with 10^4 Cryptosporidium oocysts using oral-gastric gavage. Before infection, oocysts were concentrated and counted in PBS using a hemocytometer.
Mice were distributed equally into eight groups of 10 each. At the end of the experiment, all animals were anesthetized for parasitological, ultrastructural, immunological, and biochemical studies. Mice grouping details are provided in the Supplementary Material.
On the final day of the experiment (30 days post infection), fresh fecal pellets from the infected mice in each group were collected to count the number of oocysts. Every sample was homogenized through suspension in double-distilled H2O. Subsequently, a fecal smear of 1 mg feces was prepared and stained using the modified Ziehl–Neelsen staining method. The stained fecal smear was examined microscopically, and the Cryptosporidium oocysts were counted. The number of oocysts per mg feces for each mouse was tabulated as the mean value for each group. All reported data represent the means of three independent trials.

TNF-α = test: Serum TNF-α in infected immunosuppressed mice (ELISA); assay type: in vivo; conditions: compounds 100 mg/kg/day, NTZ 250 mg/kg/day, orally 10 days, mean ± SD
Protocol: (§2) Serum concentrations of IFN-γ, TNF-α, IL-6, and IL-10 for each group were determined using an enzyme-linked immunosorbent assay reader, following the manufacturer’s protocol.

IFN-γ = test: Serum IFN-γ in infected immunosuppressed mice (ELISA); assay type: in vivo; conditions: compounds 100 mg/kg/day, NTZ 250 mg/kg/day, orally 10 days, mean ± SD
Protocol: as §2

IL-6 = test: Serum IL-6 in infected immunosuppressed mice (ELISA); assay type: in vivo; conditions: compounds 100 mg/kg/day, NTZ 250 mg/kg/day, orally 10 days, mean ± SD
Protocol: as §2

IL-10 = test: Serum IL-10 in infected immunosuppressed mice (ELISA); assay type: in vivo; conditions: compounds 100 mg/kg/day, NTZ 250 mg/kg/day, orally 10 days, mean ± SD
Protocol: as §2

RBCs = test: Hemolytic activity assay (cytotoxicity on RBCs); assay type: cell-based, rat; conditions: for IC50: Rattus norvegicus, read-out: IC50: sample concentration causing 50% hemolysis of RBCs, highest tested concentration 1,000 μg/mL
Protocol: as §1

[2] = test system: small intestinal epithelial cells; test: TEM of small intestine sections of treated infected mice; assay type: in vivo
Protocol: The small intestine of each mouse was removed, cut into small pieces (1 mm^3), fixed in 2% glutaraldehyde in 0.1 M phosphate buffer, postfixed in 1% osmium tetraoxide for 2 h at 4°C, dehydrated, and embedded in Epon. Semi-thin and ultrathin sections (two samples per mouse) were prepared using an ultramicrotome. The sections were stained and analyzed using a transmission electron microscope.

## Cc1ccc(C(C)C)c(OCC(=O)NN2C(=O)c3ccccc3C2=O)c1 [Compound 5a, N-(1,3-dioxoisoindolin-2-yl)-2-(2-isopropyl-5-methylphenoxy)acetamide]
[1]
  hemolysis at 60 min, 62.5 μg/mL: 0%
  hemolysis at 60 min, 125 μg/mL: 0%
  hemolysis at 60 min, 250 μg/mL: 0%
  hemolysis at 60 min, 500 μg/mL: 0%
  hemolysis at 60 min, 1000 μg/mL: 0%
Cryptosporidium oocysts
  Shed oocysts/mg (Mean ± SD): 13.2 ± 1.034 oocysts/mg
  R%: reduction percent in oocyst count: 62%
TNF-α
  TNF-α: 13.1 ± 0.99 pg/mL
IFN-γ
  IFN-γ: 477.8 ± 1.61 pg/mL
IL-6
  IL-6: 176.8 ± 0.91 pg/mL
IL-10
  IL-10: 327.6 ± 1.34 pg/mL

## Cc1ccc(C(C)C)c(OCC(=O)NN2C(=O)c3ccc(C(=O)O)cc3C2=O)c1 [Compound 5b, 2-(2-(2-Isopropyl-5-methylphenoxy)acetamido)-1,3-dioxoisoindoline-5-carboxylic acid]
[1]
  hemolysis at 60 min, 62.5 μg/mL: 0%
  hemolysis at 60 min, 125 μg/mL: 0%
  hemolysis at 60 min, 250 μg/mL: 0%
  hemolysis at 60 min, 500 μg/mL: 0%
  hemolysis at 60 min, 1000 μg/mL: 0%
Cryptosporidium oocysts
  Shed oocysts/mg (Mean ± SD): 14.7 ± 0.67 oocysts/mg
  R%: reduction percent in oocyst count: 57%
TNF-α
  TNF-α: 13.7 ± 1.25 pg/mL
IFN-γ
  IFN-γ: 494.2 ± 3.15 pg/mL
IL-6
  IL-6: 181.7 ± 149 pg/mL
IL-10
  IL-10: 387.8 ± 0.78 pg/mL

## Cc1ccc(C(C)C)c(OCC(=O)NN2C(=O)c3cccc4cccc(c34)C2=O)c1 [Compound 7a, N-(1,3-dioxo-1H-benzo[de]isoquinolin-2(3H)-yl)-2-(2-isopropyl-5-methylphenoxy) acetamide]
[1]
  hemolysis at 60 min, 62.5 μg/mL: 0%
  hemolysis at 60 min, 125 μg/mL: 0%
  hemolysis at 60 min, 250 μg/mL: 0%
  hemolysis at 60 min, 500 μg/mL: 5.02%
  hemolysis at 60 min, 1000 μg/mL: 6.18%
RBCs; 1,000 μg/mL, 60 min at 37°C
  Hemolysis %: 6.1873%
RBCs
  IC50: 6750 µg/mL (≈ 16.8 mM)
Cryptosporidium oocysts
  Shed oocysts/mg (Mean ± SD): 16.8 ± 0.63 oocysts/mg
  R%: reduction percent in oocyst count: 51%
TNF-α
  TNF-α: 15.9 ± 0.87 pg/mL
IFN-γ
  IFN-γ: 608.8 ± 2.48 pg/mL
IL-6
  IL-6: 237.4 ± 2.23 pg/mL
IL-10
  IL-10: 434.2 ± 1.13 pg/mL

## Cc1ccc(C(C)C)c(OCC(=O)NN2C(=O)c3cccc4c(N)ccc(c34)C2=O)c1 [Compound 7b, N-(6-amino-1,3-dioxo-1H-benzo[de]isoquinolin-2(3H)-yl)-2-(2-isopropyl-5-methylphenoxy)acetamide]
[1]
  hemolysis at 60 min, 62.5 μg/mL: 0%
  hemolysis at 60 min, 125 μg/mL: 0%
  hemolysis at 60 min, 250 μg/mL: 0%
  hemolysis at 60 min, 500 μg/mL: 0%
  hemolysis at 60 min, 1000 μg/mL: 0%
Cryptosporidium oocysts
  Shed oocysts/mg (Mean ± SD): 11.5 ± 0.85 oocysts/mg
  R%: reduction percent in oocyst count: 67%
[2]
  TEM ultrastructure of small intestine sections: healthy microvilli (slightly disfigured and disarranged)
TNF-α
  TNF-α: 11.8 ± 1.03 pg/mL
IFN-γ
  IFN-γ: 415.2 ± 2.57 pg/mL
IL-6
  IL-6: 143.1 ± 1.1 pg/mL
IL-10
  IL-10: 277.2 ± 1.47 pg/mL

## Cc1ccc(C(C)C)c(OCC(=O)Nn2c(=O)c3cc4c(=O)n(NC(=O)COc5cc(C)ccc5C(C)C)c(=O)c4cc3c2=O)c1 [Compound 9, N,N'-(1,3,5,7-tetraoxopyrrolo[3,4-f]isoindole-2,6(1H,3H,5H,7H)-diyl)bis(2-(2-isopropyl-5-methylphenoxy)acetamide)]
[1]
  hemolysis at 60 min, 62.5 μg/mL: 0%
  hemolysis at 60 min, 125 μg/mL: 0%
  hemolysis at 60 min, 250 μg/mL: 0%
  hemolysis at 60 min, 500 μg/mL: 0%
  hemolysis at 60 min, 1000 μg/mL: 35%
RBCs
  IC50: 1560 µg/mL (≈ 2.48 mM)
Cryptosporidium oocysts
  Shed oocysts/mg (Mean ± SD): 15.4 ± 0.52 oocysts/mg
  R%: reduction percent in oocyst count: 55%
TNF-α
  TNF-α: 16.2 ± 1.03 pg/mL
IFN-γ
  IFN-γ: 534.2 ± 1.26 pg/mL
IL-6
  IL-6: 215.7 ± 1.15 pg/mL
IL-10
  IL-10: 416.8 ± 0.63 pg/mL

## CC(=O)Oc1ccccc1C(=O)Nc1ncc([N+](=O)[O-])s1 [NTZ, nitazoxanide, reference compound]
Cryptosporidium oocysts
  Shed oocysts/mg (Mean ± SD): 10.4 ± 0.51 oocysts/mg
  R%: reduction percent in oocyst count: 70%
[2]
  TEM ultrastructure of small intestine sections: normal ultrastructure and regularly arranged apical microvilli with oval euchromatic nuclei
TNF-α
  TNF-α: 7.8 ± 0.91 pg/mL
IFN-γ
  IFN-γ: 422.1 ± 3.21 pg/mL
